Patent US20250032524A1, “BROAD SPECTRUM AMINOGLYCOSIDES AND USES THEREOF” (REVAGENIX, INC., priority 2022, published 2025)

What was measured:
Test in all cases: MIC broth microdilution (CLSI)
Format in all cases: cell-based
C. freundii = conditions: Citrobacter freundii, read-out: Activity (MIC)
In short: (§1)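 Organisms from overnight agar colonies were adjusted to 0.5 McFarland and tested in cation-adjusted Mueller-Hinton broth at a final 5×10^5 CFU/mL against 2-fold serial compound dilutions. Plates were incubated in ambient air at 35° C. for 18-24 hours; MIC was the lowest concentration preventing visible growth (OD 600 nm<0.05).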

E. cloacae = conditions: Enterobacter cloacae; strain AECL1089, MDR Clinical isolate (CDC CRE panel), CDC AR Bank 0154
In short: as §1

K. pneumoniae = conditions: for MIC: Klebsiella pneumoniae, strain AKPN1246, MDR Clinical isolate (CDC CRE panel), CDC AR Bank 0139
In short: as §1

S. aureus = conditions: for MIC: Staphylococcus aureus
In short: as §1

[1] = strain AKPN1250, MDR Clinical isolate (CDC CRE panel), CDC AR Bank 0143
[2] = strain AKPN1253, MDR Clinical isolate (CDC CRE panel), CDC AR Bank 0148
[3] = strain AKPN1255, MDR Clinical isolate (CDC CRE panel), CDC AR Bank 0153
[4] = ATCC29213, strain NSAU001, wild-type, QC, ATCC 29213
[5] = strain NSAU1004, MDR Clinical isolate
[6] = strain NSAU1015, MDR Clinical isolate
[7] = strain NSAU1023, MDR Clinical isolate
[8] = strain NSAU1063, MDR Clinical isolate

Row | Structure (SMILES) | MIC (C. freundii) [µg/mL] | MIC (E. cloacae) [µg/mL] | MIC (K. pneumoniae) [µg/mL] | Activity (MIC) (K. pneumoniae; [1]) | Activity (MIC) (K. pneumoniae; [2]) | Activity (MIC) (K. pneumoniae; [3]) | MIC (S. aureus; [4]) [µg/mL] | MIC (S. aureus; [5]) [µg/mL] | Activity (MIC) (S. aureus; [6]) | Activity (MIC) (S. aureus; [7]) | Activity (MIC) (S. aureus; [8])
1 | NC[C@@H]1CC[C@@H](N)[C@@H](O[C@@H]2[C@@H](N)[C@H](O)[C@@H](NC(=O)[C@@H](O)[C@H](F)CN)[C@H](O)[C@H]2O[C@@H]2O[C@H](CO)[C@@H](O[C@H]3O[C@@H](CN)[C@@H](O)[C@H](O)[C@H]3N)[C@H]2O)O1 [Compound 1, (2R,3R)-4-amino-N-((1R,2S,3S,4R,5R,6S)-3-amino-5-(((2S,3R,4S,5R)-4-(((2R,3R,4R,5S,6S)-3-amino-6-(aminomethyl)-4,5-dihydroxytetrahydro-2H-pyran-2-yl)oxy)-3-hydroxy-5-(hydroxymethyl)tetrahydrofuran-2-yl)oxy)-4-(((2R,3R,6S)-3-amino-6-(aminomethyl)tetrahydro-2H-pyran-2-yl)oxy)-2,6-dihydroxycyclohexyl)-3-fluoro-2-hydroxybutanamide] | < 16 | < 16 | < 16 | + (MIC threshold for positive activity (+) is ≤16 μg/mL) | + (MIC threshold for positive activity (+) is ≤16 μg/mL) | + (MIC threshold for positive activity (+) is ≤16 μg/mL) | < 16 | < 16 | + (MIC threshold for positive activity (+) is ≤16 μg/mL) | + (MIC threshold for positive activity (+) is ≤16 μg/mL) | + (MIC threshold for positive activity (+) is ≤16 μg/mL)
2 | NCC[C@H](O)C(=O)N[C@@H]1[C@@H](O)[C@H](N)[C@@H](O[C@H]2O[C@H](CN)CC[C@H]2N)[C@H](O[C@@H]2O[C@H](CO)[C@@H](O[C@H]3O[C@@H](CN)[C@@H](O)[C@H](O)[C@H]3N)[C@H]2O)[C@H]1O [Compound 2, (S)-4-amino-N-((1R,2S,3S,4R,5R,6S)-3-amino-5-(((2S,3R,4S,5R)-4-(((2R,3R,4R,5S,6S)-3-amino-6-(aminomethyl)-4,5-dihydroxytetrahydro-2H-pyran-2-yl)oxy)-3-hydroxy-5-(hydroxymethyl)tetrahydrofuran-2-yl)oxy)-4-(((2R,3R,6S)-3-amino-6-(aminomethyl)tetrahydro-2H-pyran-2-yl)oxy)-2,6-dihydroxycyclohexyl)-2-hydroxybutanamide] | < 16 | < 16 | < 16 | + (MIC threshold for positive activity (+) is ≤16 μg/mL) | + (MIC threshold for positive activity (+) is ≤16 μg/mL) | + (MIC threshold for positive activity (+) is ≤16 μg/mL) | < 16 | < 16 | + (MIC threshold for positive activity (+) is ≤16 μg/mL) | + (MIC threshold for positive activity (+) is ≤16 μg/mL) | + (MIC threshold for positive activity (+) is ≤16 μg/mL)
3 | C[C@H](N)[C@@H]1CC[C@@H](N)[C@@H](O[C@@H]2[C@@H](N)[C@H](O)[C@@H](NC(=O)[C@@H](O)[C@H](F)CN)[C@H](O)[C@H]2O[C@@H]2O[C@H](CO)[C@@H](O[C@H]3O[C@@H](CN)[C@@H](O)[C@H](O)[C@H]3N)[C@H]2O)O1 [Compound 3, (2R,3R)-4-amino-N-((1R,2S,3S,4R,5R,6S)-3-amino-4-(((2R,3R,6S)-3-amino-6-((S)-1-aminoethyl)tetrahydro-2H-pyran-2-yl)oxy)-5-(((2S,3R,4S,5R)-4-(((2R,3R,4R,5S,6S)-3-amino-6-(aminomethyl)-4,5-dihydroxytetrahydro-2H-pyran-2-yl)oxy)-3-hydroxy-5-(hydroxymethyl)tetrahydrofuran-2-yl)oxy)-2,6-dihydroxycyclohexyl)-3-fluoro-2-hydroxybutanamide] | < 16 | < 16 | < 16 | + (MIC threshold for positive activity (+) is ≤16 μg/mL) | + (MIC threshold for positive activity (+) is ≤16 μg/mL) | + (MIC threshold for positive activity (+) is ≤16 μg/mL) | < 16 | < 16 | + (MIC threshold for positive activity (+) is ≤16 μg/mL) | + (MIC threshold for positive activity (+) is ≤16 μg/mL) | + (MIC threshold for positive activity (+) is ≤16 μg/mL)
4 | C[C@H](N)[C@@H]1CC[C@@H](N)[C@@H](O[C@@H]2[C@@H](N)[C@H](O)[C@@H](NC(=O)[C@@H](O)CCN)[C@H](O)[C@H]2O[C@@H]2O[C@H](CO)[C@@H](O[C@H]3O[C@@H](CN)[C@@H](O)[C@H](O)[C@H]3N)[C@H]2O)O1 [Compound 6, (S)-4-Amino-N-((1R,2S,3S,4R,5R,6S)-3-Amino-4-(((2R,3R,6S)-3-Amino-6-((S)-1-Aminoethyl)Tetrahydro-2H-Pyran-2-Yl)Oxy)-5-(((2S,3R,4S,5R)-4-(((2R,3R,4R,5S,6S)-3-Amino-6-(Aminomethyl)-4,5-Dihydroxytetrahydro-2H-Pyran-2-Yl)Oxy)-3-Hydroxy-5-(Hydroxymethyl)Tetrahydrofuran-2-Yl)Oxy)-2,6-Dihydroxycyclohexyl)-2-Hydroxybutanamide] | < 16 | < 16 | < 16 | + (MIC threshold for positive activity (+) is ≤16 μg/mL) | + (MIC threshold for positive activity (+) is ≤16 μg/mL) | + (MIC threshold for positive activity (+) is ≤16 μg/mL) | < 16 | < 16 | + (MIC threshold for positive activity (+) is ≤16 μg/mL) | + (MIC threshold for positive activity (+) is ≤16 μg/mL) | + (MIC threshold for positive activity (+) is ≤16 μg/mL)
